Tests used:
anthrax spores = format: cell-based, Bacillus anthracis; conditions: ~50 ppm (approx. 50 mg/liter) pure ClO2 in water
[1] = 20° C.; cited from earlier work

Row | Compound | time to substantially destroy anthrax spores (anthrax spores) | solubility per liter of water [1] [mg]
1 | Chlorine dioxide | less than 1 min | 
2 | O=O [oxygen] |  | 9.2

Reference: patent publication US20040022667A1 (priority 2001, published 2004)
